Assay results published in US20250092017A1, “2-PIPERIDYL OR 2-PYRAZOLYL SUBSTITUTED PYRIMIDINE COMPOUND SERVING AS EGFR INHIBITOR” (SUZHOU PUHE BIOPHARMA CO., LTD., priority 2022, published 2025).
Read-outs that look alike come from different tables or passages of the source.

How the values were obtained:
EGFR (wild-type) = EGFR (wild-type) (Homo sapiens, UniProt P00533); assay: MSA (Mobility Shift Assay) kinase activity, EGFR wild type; type: biochemical; details: read-out: EGFR wt/ IC50/nM
Procedure, shortened: (§1)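 Kinase preincubated with compound 10 min at room temperature, then reaction started with ATP plus substrate in 1x kinase buffer and run at room temperature. Substrate-to-product conversion read by mobility shift; % inhibition normalised to no-enzyme and no-compound controls, IC50 from variable-slope four-parameter fit.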

EGFR (L858R) = EGFR (L858R) (Homo sapiens, UniProt P00533, L858R); assay: MSA (Mobility Shift Assay) kinase activity, EGFR-L858R; type: biochemical
Protocol: The MSA (Mobility Shift Assay) method was used to detect the effects of small molecule inhibitors on the kinase activity of EGFR wild type and its mutants (EGFR^wt, EGFR-L858R, EGFR-L858R-T790M-C797S, EGFR-L858R-C797S).
10 μL of kinase solution at 2.5 times the final concentration was added to the compound wells and positive control Max wells; 10 μL of 1x kinase buffer was added to the negative control Min wells. The mixture was centrifuged at 1000 rpm for 30 seconds, and the reaction plate was shaken to mix the solution well and then incubated at room temperature for 10 minutes. A mixed solution of ATP and kinase substrate at 5/3 times the final concentration was prepared in 1x kinase buffer. 15 μL of a mixed solution of ATP and substrate at 5/3 times the final concentration was added to initiate the reaction. The 384-well plate was centrifuged at 1000 rpm for 30 seconds, and shaken to mix the solution well and then incubated at room temperature for the corresponding time. 30 μL of stop detection solution was added to stop the kinase reaction, and the mixture was centrifuged at 1000 rpm for 30 seconds, and then to mixed well by shaking. The conversion rate was read using Caliper EZ Reader.
wherein: Conversion %_sample is the conversion rate reading of the sample; Conversion %_min is the mean of the negative control wells, representing the conversion rate reading of the wells without enzyme activity; Conversion %_max is the mean of the positive control wells, representing the conversion rate reading of the wells without compound inhibition.
The log (inhibitor) vs. response —Variable slope of the analysis software GraphPad Prism 5 was used to fit the dose-effect curve, where the log value of the concentration was used as the X-axis and the percentage inhibition rate was used as the Y-axis, to obtain the IC50 value of each compound on the enzyme activity.
The calculation formula is Y=Bottom+(Top-Bottom)/(1+10^((Log IC50−X)*Hill Slope))

EGFR (L858R/C797S) = EGFR (L858R/C797S) (Homo sapiens, UniProt P00533, C797S/L858R); assay: MSA (Mobility Shift Assay) kinase activity, EGFR-L858R-C797S; type: biochemical
Procedure, shortened: as §1

EGFR (L858R/T790M/C797S) = EGFR (L858R/T790M/C797S) (Homo sapiens, UniProt P00533, C797S/L858R/T790M); assay: MSA (Mobility Shift Assay) kinase activity, EGFR-L858R-T790M-C797S; type: biochemical
Procedure, shortened: as §1

Ba/F3-FL-EGFR = biological target: T1, Ba/F3-FL-EGFR (Homo sapiens, UniProt P00533); assay: CellTiter-Glo proliferation, Ba/F3-FL-EGFR; type: cell-based; details: 72 hours, read-out: Ba/F3-FL-EGFR IC50/nM
T1 construct: FL read as full length
Procedure, shortened: (§2)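 Ba/F3 lines dependent on the indicated EGFR variants were treated with compounds at a final DMSO concentration of 0.1% at 37 °C, 5% CO2. Viability was read by CellTiter-Glo luminescence, and inhibition rate was normalised to DMSO-treated cells (max) and medium-only wells (min). IC50 came from inhibition curves.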

Ba/F3-FL-EGFR-L858R = Ba/F3-FL-EGFR-L858R (Homo sapiens, UniProt P00533, L858R, cells depend on it); assay: CellTiter-Glo proliferation, Ba/F3-FL-EGFR-L858R; type: cell-based; details: 72 hours, read-out: Ba/F3-FL-EGFR-L858R IC50/nM
Procedure, shortened: as §2

[1] = biological target: T2, Ba/F3-TEL-EGFR-L858R-C797S (Homo sapiens, UniProt P00533, C797S/L858R, cells depend on it); assay: CellTiter-Glo proliferation, Ba/F3-TEL-EGFR-L858R-C797S; type: cell-based; details: 72 hours, read-out: Ba/F3-TEL-EGFR-L858R-C797S IC50/nM
T2 construct: fused on or other part: N-terminal TEL (ETV6) oligomerising part fused to the EGFR intracellular/kinase part; P41212 (Transcription factor ETV6)
Procedure, shortened: as §2

[2] = biological target: Ba/F3-FL-EGFR-L858R-T790M-C797S (Homo sapiens, UniProt P00533, T790M/C797S/L858R, cells depend on it); assay: CellTiter-Glo proliferation, Ba/F3-FL-EGFR-L858R-T790M-C797S; type: cell-based; details: 72 hours, read-out: Ba/F3-FL-EGFR-L858R-T790M-C797S IC50/nM
Procedure, shortened: as §2

[3] = system: Ba/F3-FL-EGFR-del19-C797S; assay: CellTiter-Glo proliferation, Ba/F3-FL-EGFR-del19-C797S; type: cell-based; details: read-out: Ba/F3-FL-EGFR-del19-C797S IC50/nM
Procedure, shortened: as §2

[4] = Liver microsome stability test, human; type: in vitro ADME; details: human liver microsomes 0.5 mg/ml, compound 1 μM, NADPH 1 mM, within 60 minutes
Protocol: (§3) The compounds of the present disclosure were subjected to a liver microsome stability test. The compounds to be tested were co-incubated with liver microsomes of different species with or without the addition of NADPH. The final concentration of the compounds to be tested in the test system was 1 μM. The final concentration of NADPH was 1 mM, and the final concentration of liver microsomes was 0.5 mg/ml.

[5] = Liver microsome stability test, mouse; type: in vitro ADME; details: mouse liver microsomes 0.5 mg/ml, compound 1 μM, NADPH 1 mM, within 60 minutes
Protocol: as §3

[6] = biological target: Ba/F3-FL-EGFR-del19-T790M-C797S (Homo sapiens, UniProt P00533, DEL746-750/T790M/C797S, cells depend on it); assay: CellTiter-Glo proliferation, Ba/F3-FL-EGFR-del19-T790M-C797S; type: cell-based; details: 72 hours, read-out: Ba/F3-FL-EGFR-del19-T790M-C797S IC50/nM
Protocol: Promega CellTiter-Glo reagent was used to detect the effects of small molecule inhibitors on the proliferation of three Ba/F3 cell lines (Ba/F3-FL-EGFR-de119, Ba/F3-FL-EGFR-de119-T790M, Ba/F3-FL-EGFR-de119-T790M-C797S).
The cell lines were cultured in an incubator at 37° C. and 5% CO2. Cells were passaged regularly and cells in the logarithmic phase were used for plating. 95 μL of cell suspension was added to each well of the cell plate, and culture medium without cells (containing 0.1% DMSO) was added to the Min control wells. Substance addition for compound detection cell plate: 5 μL of 20× compound working solution was added to the cell culture plate. 5 μL of DMSO-cell culture medium mixture was added to the Max control, with the final DMSO concentration of 0.1%. 5 μL of DMSO-cell culture medium mixture was added to the Max control. The final DMSO concentration was 0.1%.
Cell viability was detected by CellTiter-Glo luminescence assay. Data analysis:
The cell proliferation inhibition rate (Inhibition Rate) data was processed using the following formula: […]
wherein: RLUDrug represents the relative luminescence unit of the cells with the addition of drug, RLUMin represents the luminescence unit of the culture medium, and RLUMax represents the relative luminescence unit of the cells with the addition of DMSO.
The inhibition rates corresponding to different concentrations of compounds were calculated in EXCEL, and then the inhibition rate curve was plotted using GraphPad Prism software and related parameters including the maximum and minimum inhibition rates of cells and IC50 values were calculated.

[7] = biological target: Ba/F3-FL-EGFR-Del19 (E746-A750) (Homo sapiens, UniProt P00533, DEL746-750, cells depend on it); assay: CellTiter-Glo proliferation, Ba/F3-FL-EGFR-Del19; details: read-out: Ba/F3-FL-EGFR-Del19 (E746-A750), 72 hours
[8] = biological target: Ba/F3-FL-EGFR-del19/T790M (Homo sapiens, UniProt P00533, DEL746-750/T790M, cells depend on it); assay: CellTiter-Glo proliferation, Ba/F3-FL-EGFR-del19/T790M; details: read-out: Ba/F3-FL-EGFR-del19/T790M IC50/nM, 72 hours
[9] = system: BaF3 (del19/T790M1C797S) tumor cells; assay: In vivo efficacy assay in BALB/c nude mice, subcutaneous BaF3 tumor; details: 25 mg/kg, QD, oral
Protocol: In vivo efficacy assay in BALB/c nude mice. Details were as follows:
BaF3 (del19/T790M1C797S) tumor cells were cultured and inoculated into 6-8 weeks old female BALB/c nude mice (weighing about 20 g), with all mice being subcutaneously inoculated. The mice were cultured in an SPF-grade experimental environment, and all mice had free access to commercially certified standard diets. When the average tumor volume of the mice grew to about 150 mm^3, the test compound was orally administered daily. The dosage was as follows: blank group vehicle (DMSO/Solutol/H2O, 5/10/85). […] The tumor volume was measured three times a week with a two-dimensional caliper, and the animals were weighed every day. […] The volume calculation formula is: V=1/2a*b^2, where a represents the long diameter of the tumor, and b represents the short diameter of the tumor.

[10] = 72 h, proliferation, 72 hours, CellTiter-Glo

T2 sequence (P00533 whole entry C797S/L858R, the tested form may be a part): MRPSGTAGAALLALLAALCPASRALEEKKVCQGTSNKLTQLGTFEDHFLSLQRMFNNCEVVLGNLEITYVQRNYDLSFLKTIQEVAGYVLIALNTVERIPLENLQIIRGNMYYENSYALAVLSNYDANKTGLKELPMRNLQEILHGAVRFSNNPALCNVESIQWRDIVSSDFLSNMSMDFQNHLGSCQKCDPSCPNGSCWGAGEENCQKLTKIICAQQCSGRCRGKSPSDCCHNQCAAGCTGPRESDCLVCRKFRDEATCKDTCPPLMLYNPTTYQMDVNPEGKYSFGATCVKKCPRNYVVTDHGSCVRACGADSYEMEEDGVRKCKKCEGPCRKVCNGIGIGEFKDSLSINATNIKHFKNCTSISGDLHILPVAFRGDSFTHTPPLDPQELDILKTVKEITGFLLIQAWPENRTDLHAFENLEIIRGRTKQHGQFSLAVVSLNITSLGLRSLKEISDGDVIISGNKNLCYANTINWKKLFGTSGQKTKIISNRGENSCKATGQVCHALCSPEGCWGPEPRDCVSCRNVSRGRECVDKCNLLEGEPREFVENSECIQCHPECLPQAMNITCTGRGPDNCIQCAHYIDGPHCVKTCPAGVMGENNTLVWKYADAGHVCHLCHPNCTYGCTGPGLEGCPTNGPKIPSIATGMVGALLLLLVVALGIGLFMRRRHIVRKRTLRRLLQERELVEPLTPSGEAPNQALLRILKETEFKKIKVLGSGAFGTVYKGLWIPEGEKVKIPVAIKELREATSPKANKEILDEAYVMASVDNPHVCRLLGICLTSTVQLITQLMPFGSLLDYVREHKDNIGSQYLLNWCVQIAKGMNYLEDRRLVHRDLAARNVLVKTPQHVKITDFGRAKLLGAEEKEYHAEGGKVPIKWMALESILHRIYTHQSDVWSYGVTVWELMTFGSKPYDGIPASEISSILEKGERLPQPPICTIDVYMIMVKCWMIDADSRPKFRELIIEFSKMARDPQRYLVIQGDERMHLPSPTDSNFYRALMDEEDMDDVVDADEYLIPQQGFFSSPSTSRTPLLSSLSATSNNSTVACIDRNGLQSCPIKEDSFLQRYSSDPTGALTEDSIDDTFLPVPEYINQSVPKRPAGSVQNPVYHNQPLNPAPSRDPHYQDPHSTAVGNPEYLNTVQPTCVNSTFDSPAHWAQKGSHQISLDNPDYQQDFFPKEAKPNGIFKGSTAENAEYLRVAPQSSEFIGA
Ba/F3-FL-EGFR-L858R, sequence (P00533 whole entry L858R): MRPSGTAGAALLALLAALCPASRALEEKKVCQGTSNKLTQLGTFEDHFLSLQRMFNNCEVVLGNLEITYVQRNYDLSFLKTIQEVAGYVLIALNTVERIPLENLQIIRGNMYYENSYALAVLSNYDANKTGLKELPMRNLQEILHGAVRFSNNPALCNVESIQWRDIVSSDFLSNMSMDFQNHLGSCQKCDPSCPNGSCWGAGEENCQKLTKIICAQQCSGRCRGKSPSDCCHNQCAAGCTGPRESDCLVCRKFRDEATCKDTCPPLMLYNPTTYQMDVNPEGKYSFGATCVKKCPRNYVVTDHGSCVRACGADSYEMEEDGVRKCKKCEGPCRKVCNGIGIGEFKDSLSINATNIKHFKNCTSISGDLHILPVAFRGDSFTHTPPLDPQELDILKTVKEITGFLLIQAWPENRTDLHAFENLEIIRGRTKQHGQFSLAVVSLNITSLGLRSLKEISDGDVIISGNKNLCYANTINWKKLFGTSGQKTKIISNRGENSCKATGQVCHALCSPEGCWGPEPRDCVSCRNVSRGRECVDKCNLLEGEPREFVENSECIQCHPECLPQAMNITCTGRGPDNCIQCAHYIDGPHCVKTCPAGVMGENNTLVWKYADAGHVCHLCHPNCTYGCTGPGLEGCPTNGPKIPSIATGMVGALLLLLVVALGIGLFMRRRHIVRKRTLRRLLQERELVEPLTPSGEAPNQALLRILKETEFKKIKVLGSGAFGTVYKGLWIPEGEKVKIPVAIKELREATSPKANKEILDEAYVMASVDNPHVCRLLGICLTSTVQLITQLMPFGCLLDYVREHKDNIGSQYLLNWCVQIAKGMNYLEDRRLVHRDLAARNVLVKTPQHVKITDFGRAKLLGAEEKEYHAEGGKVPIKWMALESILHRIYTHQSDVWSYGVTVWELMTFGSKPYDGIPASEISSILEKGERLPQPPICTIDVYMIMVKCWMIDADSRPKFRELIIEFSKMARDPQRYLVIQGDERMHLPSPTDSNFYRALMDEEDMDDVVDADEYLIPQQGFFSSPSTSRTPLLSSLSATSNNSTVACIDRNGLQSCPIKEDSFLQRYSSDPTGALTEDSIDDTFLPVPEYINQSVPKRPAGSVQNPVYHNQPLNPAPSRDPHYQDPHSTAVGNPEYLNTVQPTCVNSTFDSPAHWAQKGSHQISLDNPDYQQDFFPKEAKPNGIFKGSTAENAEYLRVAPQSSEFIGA
EGFR (L858R/T790M/C797S), sequence (P00533 25-1210 T790M/C797S/L858R): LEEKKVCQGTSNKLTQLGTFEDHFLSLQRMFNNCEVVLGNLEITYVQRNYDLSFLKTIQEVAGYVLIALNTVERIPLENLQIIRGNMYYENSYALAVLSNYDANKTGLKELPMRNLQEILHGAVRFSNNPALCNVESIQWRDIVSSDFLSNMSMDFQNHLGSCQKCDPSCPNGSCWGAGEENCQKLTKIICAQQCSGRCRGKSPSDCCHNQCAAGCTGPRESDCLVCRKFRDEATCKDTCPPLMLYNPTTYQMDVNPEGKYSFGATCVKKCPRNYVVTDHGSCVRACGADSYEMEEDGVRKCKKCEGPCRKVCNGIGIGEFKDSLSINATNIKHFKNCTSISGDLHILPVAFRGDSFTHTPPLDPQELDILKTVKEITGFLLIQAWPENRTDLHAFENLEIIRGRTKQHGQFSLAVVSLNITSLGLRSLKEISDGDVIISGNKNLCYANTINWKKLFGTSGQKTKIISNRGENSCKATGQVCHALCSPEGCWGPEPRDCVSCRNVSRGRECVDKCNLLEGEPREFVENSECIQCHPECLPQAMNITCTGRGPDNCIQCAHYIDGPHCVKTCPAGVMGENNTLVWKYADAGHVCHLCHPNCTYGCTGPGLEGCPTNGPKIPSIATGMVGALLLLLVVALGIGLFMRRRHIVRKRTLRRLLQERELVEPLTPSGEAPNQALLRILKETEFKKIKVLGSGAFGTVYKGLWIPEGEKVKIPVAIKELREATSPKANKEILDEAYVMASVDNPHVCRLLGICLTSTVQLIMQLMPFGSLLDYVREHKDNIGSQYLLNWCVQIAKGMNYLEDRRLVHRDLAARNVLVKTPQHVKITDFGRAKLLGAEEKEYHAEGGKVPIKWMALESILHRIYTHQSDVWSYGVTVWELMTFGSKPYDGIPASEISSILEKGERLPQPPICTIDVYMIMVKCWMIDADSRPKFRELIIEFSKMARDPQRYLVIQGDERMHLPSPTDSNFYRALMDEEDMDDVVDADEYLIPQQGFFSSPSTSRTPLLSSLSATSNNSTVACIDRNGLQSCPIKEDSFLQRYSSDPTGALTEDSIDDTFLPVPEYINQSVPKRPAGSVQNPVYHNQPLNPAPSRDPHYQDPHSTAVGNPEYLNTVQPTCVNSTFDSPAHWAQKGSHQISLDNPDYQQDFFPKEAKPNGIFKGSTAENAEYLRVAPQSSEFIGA
EGFR (wild-type), sequence (P00533 25-1210): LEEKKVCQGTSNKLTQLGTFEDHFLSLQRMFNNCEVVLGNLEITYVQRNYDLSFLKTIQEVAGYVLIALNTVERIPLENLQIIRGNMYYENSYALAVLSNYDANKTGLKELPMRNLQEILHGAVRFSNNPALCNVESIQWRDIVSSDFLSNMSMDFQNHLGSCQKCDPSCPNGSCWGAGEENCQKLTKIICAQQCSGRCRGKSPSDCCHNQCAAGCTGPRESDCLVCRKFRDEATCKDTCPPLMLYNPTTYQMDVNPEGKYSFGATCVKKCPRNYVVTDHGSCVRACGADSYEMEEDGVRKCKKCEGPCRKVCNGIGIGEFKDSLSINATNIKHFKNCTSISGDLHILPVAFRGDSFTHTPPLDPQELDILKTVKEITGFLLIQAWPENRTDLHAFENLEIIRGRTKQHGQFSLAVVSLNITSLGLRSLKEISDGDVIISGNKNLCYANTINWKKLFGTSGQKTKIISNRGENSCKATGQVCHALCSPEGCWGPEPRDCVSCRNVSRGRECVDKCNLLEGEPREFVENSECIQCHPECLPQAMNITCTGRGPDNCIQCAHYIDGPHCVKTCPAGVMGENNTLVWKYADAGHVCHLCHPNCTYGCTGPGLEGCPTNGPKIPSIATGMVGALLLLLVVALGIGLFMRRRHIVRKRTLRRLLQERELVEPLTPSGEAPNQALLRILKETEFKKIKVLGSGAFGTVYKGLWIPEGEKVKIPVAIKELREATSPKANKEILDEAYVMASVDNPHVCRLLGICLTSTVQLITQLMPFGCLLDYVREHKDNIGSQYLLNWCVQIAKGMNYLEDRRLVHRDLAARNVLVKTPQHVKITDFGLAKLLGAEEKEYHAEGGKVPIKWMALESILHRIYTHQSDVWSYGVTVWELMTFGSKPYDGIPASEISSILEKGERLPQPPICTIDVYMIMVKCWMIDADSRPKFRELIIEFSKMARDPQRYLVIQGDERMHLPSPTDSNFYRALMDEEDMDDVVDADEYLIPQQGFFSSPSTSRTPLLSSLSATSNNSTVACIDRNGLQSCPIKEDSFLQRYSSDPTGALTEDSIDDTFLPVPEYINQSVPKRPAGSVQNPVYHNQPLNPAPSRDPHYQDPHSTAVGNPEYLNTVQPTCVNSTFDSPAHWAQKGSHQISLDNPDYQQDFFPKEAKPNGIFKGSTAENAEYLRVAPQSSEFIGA

IC50 (EGFR (wild-type)) [nM]	IC50 (EGFR (L858R)) [nM]	IC50 (EGFR (L858R/C797S)) [nM]	IC50 (EGFR (L858R/T790M/C797S)) [nM]	GI50 (Ba/F3-FL-EGFR) [nM]	GI50 (Ba/F3-FL-EGFR-L858R) [nM]	GI50 [1] [nM]	GI50 [2] [nM]	IC50 ([3]; proliferation, 72 hours, CellTiter-Glo) [nM]	Human Clint/(mL/min/kg) [4] [mL/min/kg]	Mouse Clint/(mL/min/kg) [5] [mL/min/kg]	IC50 [3, 10] [nM]	CLint scaled at 1 μM [4] [mL/min/kg]	CLint scaled at 1 μM [5] [mL/min/kg]	GI50 [6] [nM]	GI50 [7] [nM]	GI50 [8] [nM]	SMILES	IC50 ([3]; 72 h) [nM]	Tumor volume (mm^3) ([9]; after 13 consecutive days of administration)	TGI ([9]; after 13 consecutive days, based on final tumor volume) [%]
3.9	1.6	1.5	0.4	101	5.9	3.1	16	10	<8.6	174	–	–	–	–	–	–	CC(C)c1ccc(N2CC(CS(C)(=O)=O)C2)c2cnc(Nc3ccnc(-c4cnn(S(=O)(=O)C5CC5)c4)n3)cc12 [Compound H1]	–	–	–
2.4	–	0.77	0.14	365	13	11	25	–	–	–	12	21.3	151	–	–	–	CC(C)c1ccc(N2CC(CS(C)(=O)=O)C2)c2cnc(Nc3ccnc(-c4cnn(S(C)(=O)=O)c4)n3)cc12 [Compound H7]	–	–	–
7.4	2.9	4.6	0.4	559	64	36	123	–	–	–	57	17.2	61.8	–	–	–	CC(C)c1ccc(N2CC(CS(C)(=O)=O)C2)c2cnc(Nc3ccnc(-c4cnn(S(=O)(=O)N(C)C)c4)n3)cc12 [Compound H19]	–	–	–
–	–	–	–	259	10	8.9	21	–	–	–	9.2	11.7	145	7.8	15	5.1	CC(C)c1ccc(N2C[C@H](CS(C)(=O)=O)[C@H]2C)c2cnc(Nc3ccnc(-c4cnn(S(C)(=O)=O)c4)n3)cc12 [Compound H30]	–	–	–
8.4	1.9	2.3	0.06	1510	76	38.6	36	–	–	–	205	13.6	396	–	–	–	CC(C)c1ccc(N2CC(NS(C)(=O)=O)C2)c2cnc(Nc3ccnc(N4CCC(O)C(F)C4)n3)cc12 (centres unmarked) [Compound P21]	–	–	–
8.4	1.3	2.5	0.07	1090	41	13	13	–	–	–	202	23.4	440	–	–	–	COC1CCN(c2nccc(Nc3cc4c(C(C)C)ccc(N5CC(NS(C)(=O)=O)C5)c4cn3)n2)CC1F (centres unmarked) [Compound P29]	–	–	–
18.1	3.5	4.8	0.1	2340	111	48	47	–	–	–	200	< 8.6	230	–	–	–	CC(C)c1ccc(N2CC(NS(C)(=O)=O)C2)c2cnc(Nc3ccnc(N4CCC(O)C(F)(F)C4)n3)cc12 (centres unmarked) [Compound P30]	–	–	–
–	–	–	–	464	15	5.6	3.7	–	–	–	35	–	–	3.7	36	2.3	CC(C)c1ccc(N2C[C@H](N(C)S(C)(=O)=O)[C@H]2C)c2cnc(Nc3ccnc(N4CC[C@H](O)[C@H](F)C4)n3)cc12 [Compound P41b]	–	–	–
–	–	–	–	–	–	–	–	–	–	–	–	–	–	–	–	–	C=CC(=O)Nc1cc(Nc2nccc(-c3cn(C)c4ccccc34)n2)c(OC)cc1N(C)CCN(C)C [Osimertinib, osimertinib, reference compound]	906	3110	20
